{"source": "patent US11813249B2", "about": "“Combination therapy for treatment of restenosis” (Mercator MedSystems, Inc., priority 2017, dated 2023)", "key": {"in vivo": {"test": "in vivo", "source_text": "Overview: The purpose of this study was to evaluate the safety and pharmokinetic profile of Torisel® and dexamethasone when delivered in an exaggerated dose to peripheral vasculature in a porcine model of balloon overstretch artery stenosis.\nMethods: Four juvenile porcine subjects were used on this study to assess tissue safety and pharmacokinetic profile. The animals received femoral artery injury induced via oversizing a balloon (˜20-30% overstretch). Three animals received subsequent treatment with the Bullfrog® catheter of Torisel® (2 mg/mL) with dexamethasone (6 mg/mL) and contrast medium (20%) into the adventitia and perivascular tissue around the peripheral arteries. The fourth animal received subsequent treatment with the Bullfrog® catheter of saline and contrast medium (20%) into the adventitia and perivascular tissue around the peripheral arteries. Blood samples were taken at baseline, and post-implant 20 minutes, 1 hour, 4 hours, 24 hours, 3 days, 7 days, and just prior to termination for pharmacokinetic assessment. […] The other three animals were survived for 14 days. At day 14, blood was collected, animals were euthanized and a necropsy was performed."}, "human aortic VSMCs [1]": {"system": "human aortic VSMCs", "settings": "12 hours; for LDH release (necrosis and cytolysis): increasing drug concentrations, with or without 50 nM dexamethasone, FIG. 18A-C; for necrotic cytotoxicity (LDH): single drug or 500 nM TEM or PAC with DEX 10, 50, 500 nM, FIG. 19C", "protocol": "At harvest, plates were centrifuged at 800 rpm in a clinical centrifuge, and supernatant was carefully removed and assayed for lysed cells by measuring the LDH released into the culture media by ELISA, according to manufacturer instructions. Absorbance readings were taken using a microtiter plate reader (Tecan). […] Data in FIG. 18A represent the LDH release in the presence of increasing concentrations of sirolimus or sirolimus+50 nM dexamethasone. […] Data represent the average of 9 replicate wells per condition and error bars represent the standard deviation of the 9 replicates.\nTreated cells were then incubated for 12 hours. At harvest, plates were centrifuged at 800 rpm in a clinical centrifuge, and supernatant was carefully removed and assayed for LDH by ELISA according to manufacturer instructions. Absorbance readings were taken using a microtiter plate reader (Tecan). Data represent the average absorbance readings. Error bars represent the standard deviation amongst replicates."}, "human aortic VSMCs [2]": {"system": "human aortic VSMCs", "test": "Apoptosis by Caspase 3 ELISA in drug-treated VSMCs", "settings": "12 hours; for apoptosis (Caspase 3 activation): increasing drug concentrations, with or without 50 nM dexamethasone, FIG. 17A-C", "protocol": "At harvest, cells were gently lysed and a Caspase 3 ELISA was performed (Cell Signaling Technologies, Cat #7190). Absorbance readings were taken using a microtiter plate reader (Tecan). […] Data represent the average of 9 replicate wells per condition and error bars represent the standard deviation of the 9 replicates. Baseline levels of VSMC apoptosis were obtained using vehicle controls and values were set to zero. The percent change in apoptosis in the presence of drug was determined from baseline (FIG. 17A-C).\nCells were then incubated for 12 hours. At harvest, plates were centrifuged at 800 rpm in a clinical centrifuge, and supernatant was carefully removed. Cells were then fixed and permeabilized and assayed for cytoplasmic caspase 3 levels by ELISA, according to manufacturer instructions (Cell Signaling Technologies). Absorbance readings were taken using a microtiter plate reader (Tecan). Data represent the average absorbance readings. Error bars represent the standard deviation amongst replicates."}, "human aortic VSMCs [3]": {"system": "human aortic VSMCs", "test": "MTT metabolic activity / proliferation of PDGF-stimulated VSMCs", "format": "cell-based", "settings": "PDGF 10 ng/mL; for inhibitory activity in the MTT assay: Example 11, 1 nM to 100 μM for 12 hours; for inhibition of metabolic activity and proliferation (MTT assay): drug 0, 1, 10, 100, 500 nM, with or without 50 nM dexamethasone, FIGS. 14A-C", "procedure": "Drug-specific effects on cellular metabolic activity, pro-inflammatory cytokine production and cytotoxicity were examined. As a cytotoxic control for disruption of metabolic activity, we used actinomycin D (100 ng/mL or […]). As a negative control, vehicle (5% (v/v) sterile DMSO in saline) was used. Following an 8 hour incubation in the presence of drug and stim (PDGF), MTT substrate was added and incubated for an additional 4 hrs prior to measurement. […] Data represent the average absorbance readings.\nAfter 8 h incubation, MTT substrate was added and incubated for an additional 4 hrs prior to measurement (T=12 hours). […] Data represent the average absorbance readings. […] FIG. 19A presents the percent of inhibition that was identified in the presence of single or combination drugs. Low doses of all drugs, administered individually, had minimal inhibitory properties, as compared to high dose of each drug.\n(§1) A study was performed to assess the ability of a range of drug or drug combinations to induce cytotoxicity in PDGF-stimulated aortic smooth muscle and endothelial cells in vitro. […] Utilizing protocols for EC and VSMC stimulation mediated by the growth factor, PDGF, cells were incubated in drug at concentration ranges from 0, 1, 10, 100 nM, 1, 10, 100 μM for 12 hours prior to assessment for cellular activation and cytotoxicity. Prior to harvest, BrdU was added to each well for 6 hours for DNA incorporation. […] Data represent the average absorbance readings. […] Cellular activation was monitored by metabolic activity and cellular proliferation. Metabolic activity was measured using the MTT assay to monitor enzyme-dependent metabolite production while proliferation was measured using 5-bromo-2′-deoxyuridine (BrdU) ELISA to monitor DNA synthesis."}, "[4]": {"system": "TNFα production of human aortic VSMCs", "test": "TNFα ELISA of supernatant of PDGF-stimulated VSMCs", "format": "cell-based", "settings": "for PDGF-induced TNFα levels: 48 h, single drug 0, 10, 50, 500 nM, or 500 nM TEM or PAC with DEX 10, 50, 500 nM, FIG. 19E", "procedure": "(§2) Following a 48 hour incubation in the presence of drug and stimulant (PDGF), 50 uL of supernatant from each well was collected and ELISAs were performed to measure TNFα levels. Pro-inflammatory cytokine expression was examined under these conditions by measuring TNFα levels in cell supernatant after 48 h by enzyme-linked immunoassay (ELISA; Peprotech #900-T16, #900-T25)."}, "[5]": {"system": "IL6 cytokine production of human aortic VSMCs", "test": "IL6 ELISA of supernatant of PDGF-stimulated VSMCs", "format": "cell-based", "settings": "for PDGF-induced IL6 levels: 48 h, single drug 0, 10, 50, 500 nM, or 500 nM TEM or PAC with DEX 10, 50, 500 nM, FIG. 19D", "procedure": "as §2, with “IL6” for “TNFα”"}, "human aortic VSMCs [6]": {"system": "human aortic VSMCs", "test": "BrdU ELISA proliferation of PDGF-stimulated VSMCs", "format": "cell-based", "settings": "Example 11; 1 nM to 100 μM for 12 hours; PDGF 10 ng/mL; compared to vehicle control and actinomycin D; FIG. 20", "procedure": "as §1"}, "[7]": {"test": "Example 13 porcine study: blood and tissue pharmacokinetics", "procedure": "(§3) Methods. Twelve animals were evaluated for tissue safety and pharmacokinetic blood and tissue profiles. The animals received vessel injury induced via oversizing a balloon at ˜20-30% overstretch, then receiving subsequent Bullfrog® catheter delivery of 4 mg/mL Torisel® or saline placebo control into the adventitia and perivascular tissue around the coronary and femoral arteries. Blood samples for pharmacokinetic analysis were taken at 5 minutes, 30 minutes, 1 hour, 24 hours, 72 hours, 7 Days, 28 Days, and termination. Animals were terminated at 90 days. Gross examination of all treated tissues and surrounding structures was performed. […] Histological analysis was performed on all other collected arterial tissues."}, "[8]": {"set-up": "species or system swine", "settings": "pig, in vivo", "procedure": "The study design included a total of eleven (11) animals; 8 of which received angioplasty overstretch followed by single dose of test article in bilateral superficial femoral arteries administered for a total in-life phase of 1 hour (n=2), 3 days (n=2), 7 days (n=2) and 28 days (n=2) and three additional animals that served as control by undergoing angioplasty overstretch followed by infusion of saline and surviving for 3 days (n=1), 7 days (n=1) and 28 days (n=1). A carotid artery access was utilized for all interventional procedures. […] Animals survived to 1 hour (n=2), 3 days (n=2), 7 days (n=2) and 28 days (n=2), for detailed histopathology and safety evaluation. Following survival to the designated endpoint, animals underwent blood collection, then were euthanized and necropsied followed by histological examination.\nA prospective study of a single dose (357 μg in 1.5 ml) of adventitially delivered study drug (Torisel®) was conducted. All doses contained 50% contrast medium for distribution tracking. Each pig received bilateral injections in the mid femoral region. 2 pigs each were sacrificed at 1 hour, 3 days, 7 days and 28 days, for a total of 8 pigs. […] 3 pigs were used as control in which treatment sites were subjected to overstretch injury followed by infusion of saline via the Mercator Bullfrog® catheter and sacrificed at 3 days, 7 days or 28 days (1 pig at each time point). […]"}, "[9]": {"settings": "dosage of 4 mg/mL temsirolimus", "procedure": "as §3"}, "external iliac arteries": {"system": "external iliac arteries", "test": "Example 15 WHHL rabbit model of balloon overstretch artery stenosis: histopathology", "format": "in vivo, Watanabe heritable hyperlipidemic (WHHL) rabbit", "settings": "relative to dexamethasone alone or vehicle group", "protocol": "Overview. A rabbit study was performed to evaluate the tissue effect of Torisel® (Tem) and dexamethasone (Dex) when delivered as combined or alone to peripheral vasculature in a Watanabe heritable hyperlipidemic (WHHL) rabbit model of balloon overstretch artery stenosis. Each animal was subject to balloon angioplasty and treatment in each of the two (2) external iliac arteries. Four subjects were assigned to each of three groups: Torisel®, dexamethasone, or combination. Three subjects were assigned to each of two groups: control (vehicle delivery) or balloon only. Two New Zealand white rabbits were assigned to treatment with balloon only in one iliac and were naïve to any treatment in the other iliac.\nMethods. Twenty animals were evaluated for tissue effect of peri-vascular injection of test and control articles. […] The animals received vessel injury induced via oversizing a balloon (˜20-30% overstretch). Animals were divided into the six groups with varying balloon injury targets and various combinations of test and control articles. The test and control articles were injected into the peri-vascular tissue using the Bullfrog® catheter. Animals were recovered and survived for ˜28 days. At ˜28 days, animals were sacrificed, a gross pathology performed and tissue harvested for histopathology analysis."}}, "note": "“Also recorded” adds a separate entry of the source.", "data": [{"molecule": "C[C@@H]1C[C@H]2[C@@H]3CCC4=CC(=O)C=C[C@]4(C)[C@@]3(F)[C@@H](O)C[C@]2(C)[C@@]1(O)C(=O)CO", "note": "[dexamethasone]", "values": [{"measurement": "dexamethasone levels in plasma at the 24-hour time point and after", "setting": "in vivo; pig, in vivo", "result": "below LLOQ"}, {"measurement": "tissue levels at 14 days", "setting": "in vivo; pig, in vivo", "result": "below LLOQ"}, {"measurement": "LDH release (necrosis and cytolysis)", "setting": "human aortic VSMCs [1]", "result": "suppressed LDH release compared to vehicle"}, {"measurement": "necrotic cytotoxicity (LDH)", "setting": "human aortic VSMCs [1]", "result": "not observed"}, {"measurement": "apoptosis (Caspase 3 activation)", "setting": "human aortic VSMCs [2]", "result": "did not induce significant apoptosis"}]}, {"molecule": "CC(=O)O[C@H]1C(=O)[C@@]2(C)[C@H]([C@H](OC(=O)c3ccccc3)[C@]3(O)C[C@H](OC(=O)[C@H](O)[C@@H](NC(=O)c4ccccc4)c4ccccc4)C(C)=C1C3(C)C)[C@]1(OC(C)=O)CO[C@@H]1C[C@@H]2O", "note": "[paclitaxel]", "values": [{"measurement": "inhibitory activity in the MTT assay", "setting": "human aortic VSMCs [3]", "result": "at higher concentrations had inhibitory activity"}, {"measurement": "inhibition of metabolic activity and proliferation (MTT assay)", "setting": "human aortic VSMCs [3]", "result": "at higher concentrations had inhibitory activity"}, {"measurement": "PDGF-induced TNFα levels", "setting": "[4]", "result": "dose-dependent upregulation"}, {"measurement": "TNFα production", "setting": "[4]; 48 hour incubation, increasing drug concentrations, with or without 50 nM dexamethasone, FIGS. 15A-C", "result": "activated pro-inflammatory cytokine expression; also recorded: induced IL6 and TNFα production by SMCs at all doses tested; also recorded: increased steadily"}, {"measurement": "PDGF-induced IL6 levels", "setting": "[5]", "result": "dose-dependent upregulation"}, {"measurement": "IL6 production", "setting": "[5]; 48 hour incubation, increasing drug concentrations, with or without 50 nM dexamethasone, FIGS. 16A-C", "result": "induced IL6 and TNFα production by SMCs at all doses tested; also recorded: no significant change in IL6 levels between 50 and 500 nM"}, {"measurement": "inhibition of BrdU incorporation (cellular proliferation)", "setting": "human aortic VSMCs [6]", "result": "approached the degree of inhibition of actinomycin D"}, {"measurement": "LDH release (necrosis and cytolysis)", "setting": "human aortic VSMCs [1]", "result": "dose-dependent relationship"}, {"measurement": "necrotic cytotoxicity (LDH)", "setting": "human aortic VSMCs [1]", "result": "demonstrated necrotic cytotoxicity"}, {"measurement": "average increase in apoptosis from vehicle baseline", "setting": "human aortic VSMCs [2]; Caspase 3 ELISA, vehicle baseline set to zero", "result": "≤ 173", "unit": "%"}, {"measurement": "apoptosis (Caspase 3 activation)", "setting": "human aortic VSMCs [2]", "result": "induced in a dose-dependent manner"}, {"measurement": "apoptosis (cytoplasmic caspase 3) compared to vehicle control", "setting": "human aortic VSMCs [2]; single drug or 500 nM TEM or PAC with DEX 10, 50, 500 nM, FIG. 19B", "result": "promote apoptosis (lack of inhibition)"}]}, {"molecule": "CO[C@H]1C[C@@H]2CC[C@@H](C)[C@@](O)(O2)C(=O)C(=O)N2CCCC[C@H]2C(=O)O[C@H]([C@H](C)C[C@@H]2CC[C@@H](O)[C@H](OC)C2)CC(=O)[C@H](C)/C=C(\\C)[C@@H](O)[C@@H](OC)C(=O)[C@H](C)C[C@H](C)/C=C/C=C/C=C/1C", "note": "[sirolimus]", "values": [{"measurement": "relation of observed blood concentrations to dose", "setting": "[7]; 52 mg versus 5.2 mg Torisel", "result": "proportional to dose"}, {"measurement": "homogenized vascular tissue levels", "setting": "[7]; termination at 90 days", "result": "all below LLOQ"}, {"measurement": "whole blood levels at 28 days and at termination", "setting": "[7]; termination at 90 days", "result": "below LLOQ"}, {"measurement": "whole blood levels, time course", "setting": "[7]; up to 52 mg or 5.2 mg Torisel, perivascular, coronary and peripheral arteries", "result": "peaked at early time points, declined over time to Day 7"}]}, {"molecule": "CO[C@H]1C[C@@H]2CC[C@@H](C)[C@@](O)(O2)C(=O)C(=O)N2CCCC[C@H]2C(=O)O[C@H]([C@H](C)C[C@@H]2CC[C@@H](OC(=O)C(C)(CO)CO)[C@H](OC)C2)CC(=O)[C@H](C)/C=C(\\C)[C@@H](O)[C@@H](OC)C(=O)[C@H](C)C[C@H](C)/C=C/C=C/C=C/1C", "note": "[temsirolimus]", "values": [{"measurement": "inhibitory activity in the MTT assay", "setting": "human aortic VSMCs [3]", "result": "at higher concentrations had inhibitory activity"}, {"measurement": "inhibition of metabolic activity and proliferation (MTT assay)", "setting": "human aortic VSMCs [3]", "result": "at higher concentrations had inhibitory activity"}, {"measurement": "PDGF-induced TNFα levels", "setting": "[4]", "result": "dose-dependent reduction"}, {"measurement": "PDGF-induced IL6 levels", "setting": "[5]", "result": "dose-dependent reduction"}, {"measurement": "inhibition of BrdU incorporation (cellular proliferation)", "setting": "human aortic VSMCs [6]", "result": "approached the degree of inhibition of actinomycin D"}, {"measurement": "time post-dosing up to which drug was measured in the local vascular tissue", "setting": "[8]", "result": "up to 28 days"}, {"measurement": "relation of observed blood concentrations to dose", "setting": "[7]; pig, in vivo", "result": "proportional to dose"}, {"measurement": "whole blood levels at 28 days and at termination", "setting": "[7]; pig, in vivo", "result": "below LLOQ"}, {"measurement": "mineralization in tissues", "setting": "[9]", "result": "not previously seen"}, {"measurement": "temsirolimus levels in the blood, time course", "setting": "in vivo; Torisel 2 mg/mL with dexamethasone 6 mg/mL, perivascular, peripheral arteries", "result": "peaked at early time points, declined over time to 7 days"}, {"measurement": "temsirolimus levels in the blood at termination", "setting": "in vivo; day 14", "result": "below the lower limit of quantitation (LLOQ)"}, {"measurement": "level in homogenized vascular tissue at term", "setting": "in vivo; day 14, one value per test animal", "result": 97.5, "unit": "ng/g"}, {"measurement": "level in vascular tissue at term, molar equivalent", "setting": "in vivo; day 14, printed as equivalent", "result": 94.7, "unit": "nM"}, {"measurement": "concentration at 14 days", "setting": "in vivo; pig, in vivo, level in homogenized vascular tissue at term, day 14, one value per test animal", "result": 50.3, "unit": "ng/g"}, {"measurement": "concentration at 14 days", "setting": "in vivo; pig, in vivo, level in vascular tissue at term, molar equivalent, day 14, printed as equivalent", "result": 48.8, "unit": "nM"}, {"measurement": "% HHF-35 positive intimal/medial area (marker of vascular smooth muscle cell viability)", "setting": "external iliac arteries", "result": "smaller"}]}]}
